Experimental data as given in publication PMC11311998, “AR71, Histamine H3 Receptor Ligand—In Vitro and In Vivo Evaluation (Anti-Inflammatory Activity, Metabolic Stability, Toxicity, and Analgesic Action)” (International Journal of Molecular Sciences, 2024).
Several values for one entry are separate records, joined by “and”; a condition that tells them apart may be missing. Equal entries are not always repeated.

Legend:
hH1R = molecular target: hH1R; set-up: method as in PMID 36370200; settings: cited from earlier work
SH-SY5Y cells = assay: DNA content / cell cycle (2N/4N DNA ratio), image cytometry; format: cell-based, human
Experimental: To evaluate the growth dynamics of SH-SY5Y cells in the presence of AR71, neuroblastoma cells were treated with increasing concentrations (0.39–25 µM) of the compound tested for 24 or 72 h. Using image cytometry, we calculated the DNA content index as a 2N/4N DNA ratio to analyse the cell cycle distribution after 24 and 72 h of incubation with AR71.
SH-SY5Y cells were initially seeded in 96-well plates at a density of 5000 cells per well in 120 μL of medium. After 24 h, the cells were exposed to different concentrations of AR71 for either 24 or 72 h. Following a wash with PBS, the cells were fixed with 4% formaldehyde for 20 min and then stained with 1 µg/mL of Hoechst 33342 for 30 min at room temperature. Subsequently, images of 16 fields per well were captured using the ArrayScan VTI HCS Reader from Thermo Fisher Scientific, Inc. (Thermo Fisher Scientific, Waltham, MA, USA), which was equipped with a 5× objective. The cell number was calculated as the sum of the Hoechst-33342-stained cell nuclei using Cell Cycle Bioapplication V3 software and expressed as a per cent of control. The remaining adherent cells in culture wells reflected the cytotoxic potential of the tested compound. In the next step, a series of detailed images were acquired using the ArrayScan VTI HCS Reader equipped with a 10× objective to collect at least 500 nuclei/cells per replicate. The DNA cell content of single cells was analysed based on Hoechst-33342 fluorescence intensity of their nuclei using Cell Cycle Bioapplication V3 software and presented as the DNA 2N/4N ratio. All experiments were performed three times, each in four replicates. IC50 values were calculated with a non-linear fit to a sigmoidal dose–response curve (log compound vs. normalised response) using GraphPad Prism 6.07. The results are presented as mean ± SEM from at least three independent experiments. Statistical significance was evaluated using one-way ANOVA followed by Dunnett’s test. * p < 0.05, ** p < 0.01, and *** p < 0.001 indicate significant differences compared with the control counterparts.

BV-2 cells = assay: cytokine/chemokine panel in LPS-stimulated microglia (Luminex); format: cell-based, mouse
Source text: In the research presented in this paper, we extended the study of the anti-inflammatory properties of AR71 by analysing the panel of cytokines/chemokines in mouse microglia with the Luminex® platform. We applied MILLIPLEX® Magnetic Bead Panel that consists of nine different analytes regarding inflammation. Some of the analytes were below the limit of quantification, and the reason for this is explained in the text.
BV-2 cells (the murine microglial cell line) were purchased from the Interlab Cell Line Collection (ICLC) cell bank (ICLC, Genova, Italy). The cells were cultured in DMEM medium (Gibco no. 61965-026, ThermoFisher Scientific, Waltham, MA, USA) containing 10% charcoal-stripped foetal bovine serum (CS-FBS, Biowest no. S181f, batch no. S00NP) in a humidified incubator containing 95% air and 5% CO2 at 37 °C. CS-FBS was used to study the effect of compounds on neuroinflammation in vitro without the confounding effects of some cytokines that are naturally present in serum. Experiments were carried out with BV-2 cells from passages 7 to 13.
The Luminex assay is a form of immunoassay that utilises magnetic microparticles and the same sandwiching techniques as ELISAs. To analyse the panel of cytokines/chemokines in mouse microglia, we used a MILLIPLEX® Magnetic Bead Panel (MCYTOMAG-70K, Millipore, Sigma-Aldrich, Darmstadt, Germany). The following analytes were studied: IFN-γ, IL-1β, IL-4, IL-6, IL-10, IL-12 (p40), IP-10, MIP-2, and TNF-α. The preparation of antibody-immobilised beads, quality controls, mouse cytokine standard, and immunoassay procedure, were performed according to the manufacturer’s protocol. All standards, quality controls, and samples were analysed in duplicate on the Luminex 200 multiplexing instrument (Luminex Corp, Austin, TX, USA). Sample analyte concentrations were determined using Belysa 1.1.0 curve-fitting software and the standard curve data from each run (Millipore, Sigma-Aldrich, Darmstadt, Germany). To perform multiplex cytokine analysis, BV-2 cells (150 × 10^3 cells/well/500 μL in 24-well plate) were pre-treated for 1 h with AR71, and then LPS (1 μg/mL) was added to induce inflammation. The cells were cultured for another 24 h. After this time, cell culture supernatants were collected, centrifuged to remove cell debris, and stored at −80 °C for analysis. To avoid multiple freeze/thaw cycles, the samples were aliquoted.

[1] = 1 h pre-treatment, LPS 1 μg/mL, 24 h

COc1cc(/C=C/C(=O)c2ccc(OCCCN3CCCCC3)cc2)cc(OC)c1OC [AR71, (E)-3-(3,4,5-trimethoxyphenyl)-1-(4-(3-(piperidin-1-yl)propoxy)phenyl)prop-2-en-1-one]
Ki (hH1R): 2700 nM and > 2500 nM
effect on cell cycle (SH-SY5Y cells; 3.125–25 µM, 24 and 72 h): cell cycle arrest at the G2/M phase (4N)
IC50 for 2N/4N DNA ratio (SH-SY5Y cells; 24 h incubation): 18800 nM
IC50 for 2N/4N DNA ratio (SH-SY5Y cells; 72 h incubation): 4540 nM
reduction of IL-1β vs level after LPS stimulation (BV-2 cells; [1]): 2.66 times lower
reduction of IL-6 vs level after LPS stimulation (BV-2 cells; [1]): 5.94 times lower
reduction of TNF-α vs level after LPS stimulation (BV-2 cells; [1]): 1.77 times lower
effect on CXCL-10 (IP-10) (BV-2 cells; in the presence of LPS): repressed
IL-4 level in the presence of LPS (BV-2 cells; with LPS): did not restore the level of IL-4 to the control point
IL-4 level, compound alone (BV-2 cells; without LPS, vs unstimulated BV-2 cells): half the IL-4 content
